Results: patent US20170190671A1, “BIS(ARYL)CATECHOL DERIVATIVES AS HERBICIDES” (E I DU PONT DE NEMOURS AND COMPANY, priority 2014, published 2017)

Assays:
Assay type in all cases: in vivo
[1] = system: Italian ryegrass (Lolium multiflorum); test: Test C preemergence; settings: Lolium multiflorum, pre-emergence, 336 h, scale 0 to 100, read-out: Plant response rating, Ryegrass, Italian
In short: (§1)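 Greenhouse test, preemergence on seeded soil or postemergence on 1- to 4-leaf plants. Response is a visual 0-100 rating versus controls, taken 13-15 days after treatment.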

[2] = system: barnyardgrass (Echinochloa crus-galli); test: Test C preemergence; settings: Echinochloa crus-galli, pre-emergence, read-out: Plant response rating, Barnyardgrass
In short: as §1

[3] = system: blackgrass (Alopecurus myosuroides); test: Test C preemergence; settings: Alopecurus myosuroides, pre-emergence, 336 h, scale 0 to 100, read-out: Plant response rating, Blackgrass
In short: as §1

[4] = system: corn (Zea mays); test: Test C preemergence; settings: Zea mays, pre-emergence, 336 h, scale 0 to 100
In short: as §1

[5] = system: galium (catchweed bedstraw, Galium aparine); test: Test C preemergence; settings: Galium, pre-emergence, 336 h, scale 0 to 100, read-out: Plant response rating, Galium
In short: as §1

[6] = system: johnsongrass (Sorghum halepense); test: Test C preemergence; settings: Sorghum halepense, pre-emergence, 336 h, scale 0 to 100, read-out: Plant response rating, Johnsongrass
In short: as §1

[7] = system: lambsquarters (Chenopodium album); test: Test C preemergence; settings: Chenopodium album, pre-emergence, 336 h, scale 0 to 100, read-out: Plant response rating, Lambsquarters
In short: as §1

[8] = system: morningglory (Ipomoea coccinea); test: Test C preemergence; settings: Ipomoea, pre-emergence, 336 h, scale 0 to 100, read-out: Plant response rating, Morningglory
In short: as §1

[9] = system: pigweed (Amaranthus retroflexus); test: Test C preemergence; settings: Amaranthus retroflexus, pre-emergence, 336 h, scale 0 to 100, read-out: Plant response rating, Pigweed
In short: as §1

[10] = system: ragweed (common ragweed, Ambrosia elatior); test: Test C preemergence; settings: Ambrosia artemisiifolia, pre-emergence, 336 h, scale 0 to 100, read-out: Plant response rating, Ragweed
In short: as §1

[11] = system: soybean (Glycine max); test: Test C preemergence; settings: Glycine max, pre-emergence, scale 0 to 100, read-out: Plant response rating, Soybean
In short: as §1

[12] = system: velvetleaf (Abutilon theophrasti); test: Test C preemergence; settings: Abutilon theophrasti, pre-emergence, scale 0 to 100, read-out: Plant response rating, Velvetleaf
In short: as §1

[13] = system: waterhemp (common waterhemp, Amaranthus rudis); test: Test C preemergence; settings: Amaranthus tuberculatus, pre-emergence, scale 0 to 100, read-out: Plant response rating, Waterhemp
In short: as §1

[14] = system: yellow nutsedge (Cyperus esculentus); test: Test C preemergence; settings: Cyperus, pre-emergence, 336 h, scale 0 to 100, read-out: Plant response rating, Nutsedge, Yellow
In short: as §1

[15] = system: giant foxtail (Setaria faberii); test: Test E preemergence; settings: scale 0 to 100
From the text: Seeds of plant species selected from corn (Zea mays), soybean (Glycine max), velvetleaf (Abutilon theophrasti), cocklebur (common cocklebur, Xanthium strumarium), lambsquarters (Chenopodium album), wild poinsettia (Euphorbia heterophylla), palmer pigweed (Amaranthus palmeri), waterhemp (common waterhemp, Amaranthus rudis), surinam grass (Brachiaria decumbens), large (Lg) crabgrass (Digitaria sanguinalis), Brazilian crabgrass (Digitaria horizontalis), fall panicum (Panicum dichotomiflorum), giant foxtail (Setaria faberii), green foxtail (Setaria viridis), goosegrass (Eleusine indica), johnsongrass (Sorghum halepense), ragweed (common ragweed, Ambrosia elatior), barnyardgrass (Echinochloa crus-galli), sandbur (southern sandbur, Cenchrus echinatus), arrowleaf sida (Sida rhombifolia), Italian ryegrass (Lolium multiflorum), dayflower (Virginia (VA) dayflower, Commelina virginica), field bindweed (Convolvulus arvensis), morningglory (Ipomoea coccinea), nightshade (eastern black nightshade, Solanum ptycanthum), kochia (Kochia scoparia), yellow nutsedge (Cyperus esculentus), horseweed (Conyza canadensis), and hairy beggarticks (Bidens pilosa), were planted into a silt loam soil and treated preemergence with test chemicals formulated in a non-phytotoxic solvent mixture which included a surfactant.
At the same time, plants from these crop and weed species and also waterhemp_RES1, (ALS & Triazine resistant common waterhemp, Amaranthus rudis), and waterhemp_RES2, (ALS & HPPD resistant common waterhemp, Amaranthus rudis) were planted in pots containing Redi-Earth® planting medium (Scotts Company, 14111 Scottslawn Road, Marysville, Ohio 43041) comprising spaghnum peat moss, vermiculite, wetting agent and starter nutrients were treated with postemergence applications of test chemicals formulated in the same manner. Plants ranged in height from 2 to 18 cm for postemergence treatments (1- to 4-leaf stage). Treated plants and controls were maintained in a greenhouse for 14 to 21 days, after which time all species were compared to controls and visually evaluated. Plant response ratings, summarized in Table E, are based on a scale of 0 to 100 where 0 is no effect and 100 is complete control. A dash (-) response means no test result.

## Fc1cccc(Oc2ncc(Cl)cn2)c1Oc1ncc(Cl)cn1 [Compound 21, 2,2′-[[3-fluoro-1,2-phenylene]bis(oxy)]bis[5-chloropyrimidine]]
[1]; 31 g ai/ha, preemergence
  pest or weed control at 31 g/ha: 50%
[1]; 62 g ai/ha, preemergence
  pest or weed control at 62 g/ha: 85%
[1]; 125 g ai/ha, preemergence
  pest or weed control at 125 g/ha: 90%
[1]; Preemergence, 16 g ai/ha
  pest or weed control at 16 g/ha: 10%
[2]; 31 g ai/ha, preemergence, scale 0 to 100
  pest or weed control at 31 g/ha: 85%
[2]; 62 g ai/ha, preemergence, scale 0 to 100
  pest or weed control at 62 g/ha: 100%
[2]; 125 g ai/ha, preemergence, scale 0 to 100
  pest or weed control at 125 g/ha: 100%
[2]; Preemergence, 16 g ai/ha, scale 0 to 100 (0 no effect, 100 complete control)
  pest or weed control at 16 g/ha: 35%
[3]; 31 g ai/ha, preemergence
  pest or weed control at 31 g/ha: 30%
[3]; 62 g ai/ha, preemergence
  pest or weed control at 62 g/ha: 90%
[3]; 125 g ai/ha, preemergence
  pest or weed control at 125 g/ha: 90%
[3]; Preemergence, 16 g ai/ha
  pest or weed control at 16 g/ha: 30%
[4]; 31 g ai/ha, preemergence
  Corn plant response rating (crop injury, 0 = no effect, 100 = complete kill) at 31 g/ha: 25%
[4]; 62 g ai/ha, preemergence
  Corn plant response rating (crop injury, 0 = no effect, 100 = complete kill) at 62 g/ha: 45%
[4]; 125 g ai/ha, preemergence
  Corn plant response rating (crop injury, 0 = no effect, 100 = complete kill) at 125 g/ha: 98%
[4]; Preemergence, 16 g ai/ha
  Corn plant response rating (crop injury, 0 = no effect, 100 = complete kill) at 16 g/ha: 5%
[5]; 31 g ai/ha, preemergence
  pest or weed control at 31 g/ha: 100%
[5]; 62 g ai/ha, preemergence
  pest or weed control at 62 g/ha: 100%
[5]; 125 g ai/ha, preemergence
  pest or weed control at 125 g/ha: 100%
[5]; Preemergence, 16 g ai/ha
  pest or weed control at 16 g/ha: 98%
[6]; 31 g ai/ha, preemergence
  pest or weed control at 31 g/ha: 50%
[6]; 62 g ai/ha, preemergence
  pest or weed control at 62 g/ha: 85%
[6]; 125 g ai/ha, preemergence
  pest or weed control at 125 g/ha: 98%
[6]; Preemergence, 16 g ai/ha
  pest or weed control at 16 g/ha: 5%
[7]; 31 g ai/ha, preemergence
  pest or weed control at 31 g/ha: 100%
[7]; 62 g ai/ha, preemergence
  pest or weed control at 62 g/ha: 100%
[7]; 125 g ai/ha, preemergence
  pest or weed control at 125 g/ha: 98%
[7]; Preemergence, 16 g ai/ha
  pest or weed control at 16 g/ha: 100%
[8]; 31 g ai/ha, preemergence
  pest or weed control at 31 g/ha: 80%
[8]; 62 g ai/ha, preemergence
  pest or weed control at 62 g/ha: 85%
[8]; 125 g ai/ha, preemergence
  pest or weed control at 125 g/ha: 98%
[8]; Preemergence, 16 g ai/ha
  pest or weed control at 16 g/ha: 70%
[9]; 31 g ai/ha, preemergence
  pest or weed control at 31 g/ha: 100%
[9]; 62 g ai/ha, preemergence
  pest or weed control at 62 g/ha: 100%
[9]; 125 g ai/ha, preemergence
  pest or weed control at 125 g/ha: 100%
[9]; Preemergence, 16 g ai/ha
  pest or weed control at 16 g/ha: 100%
[10]; 31 g ai/ha, preemergence
  pest or weed control at 31 g/ha: 85%
[10]; 62 g ai/ha, preemergence
  pest or weed control at 62 g/ha: 85%
[10]; 125 g ai/ha, preemergence
  pest or weed control at 125 g/ha: 85%
[10]; Preemergence, 16 g ai/ha
  pest or weed control at 16 g/ha: 65%
[11]; 31 g ai/ha, preemergence
  plant injury at 31 g/ha: 90%
[11]; 62 g ai/ha, preemergence
  plant injury at 62 g/ha: 95%
[11]; 125 g ai/ha, preemergence
  plant injury at 125 g/ha: 98%
[11]; Preemergence, 16 g ai/ha
  plant injury at 16 g/ha: 85%
[12]; 31 g ai/ha, preemergence
  pest or weed control at 31 g/ha: 100%
[12]; 62 g ai/ha, preemergence
  pest or weed control at 62 g/ha: 100%
[12]; 125 g ai/ha, preemergence
  pest or weed control at 125 g/ha: 100%
[12]; Preemergence, 16 g ai/ha
  pest or weed control at 16 g/ha: 100%
[13]; 31 g ai/ha, preemergence
  pest or weed control at 31 g/ha: 100%
[13]; 62 g ai/ha, preemergence
  pest or weed control at 62 g/ha: 100%
[13]; 125 g ai/ha, preemergence
  pest or weed control at 125 g/ha: 100%
[13]; Preemergence, 16 g ai/ha
  pest or weed control at 16 g/ha: 100%
[14]; 31 g ai/ha, preemergence
  pest or weed control at 31 g/ha: 5%
[14]; 62 g ai/ha, preemergence
  pest or weed control at 62 g/ha: 35%
[14]; 125 g ai/ha, preemergence
  pest or weed control at 125 g/ha: 85%
[14]; Preemergence, 16 g ai/ha
  pest or weed control at 16 g/ha: 0%
[15]; 16 g ai/ha
  Plant response rating, Foxtail, Giant: 5
[15]; 31 g ai/ha
  Plant response rating, Foxtail, Giant: 90
[15]; 62 g ai/ha
  Plant response rating, Foxtail, Giant: 100
[15]; 125 g ai/ha
  Plant response rating, Foxtail, Giant: 100
